# According to PubChem BioAssay AID486 (Columbia University Molecular Screening Center, 2006):
# pIC50: −log10 of the molar value. Activity calls are given as the source filed them.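 Rule for the calls: active = ranking score of 15 or more out of 100, based on fitted potency or summed per-dose inhibition deviations; inactive = the rest.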
# Tested on: exon1htt(103Q)-mCFP cells, aggregate imaging, high-content
# Assay: mutant huntingtin aggregate clearance potency, dose response, imaging, exon1htt(103Q)-mCFP cells, high-content imaging (AID 486)
SMILES,IC50,pIC50
COc1ccc(OC)c(C(=O)CSc2nnc(-c3ccc(OC)c(OC)c3)o2)c1,> 8 µM (inactive),–
COC(=O)c1c(N)nc(C)n1-c1ccc(OC)cc1,> 8 µM (inactive),–
CCOC(=O)c1cc2c(=O)n3ccccc3nc2n(CCCOC)c1=NC(=O)C(C)(C)C,> 8 µM (inactive),–
Cc1c(C(=O)NCc2cccnc2)oc2ccc(S(=O)(=O)N3CCCCC3)cc12,> 8 µM (inactive),–
COc1ccc(-c2nnc(SCC#N)o2)cc1,> 8 µM (inactive),–
Cc1ncoc1C(=O)Nc1cccc(Cl)c1C,> 8 µM (inactive),–
Cn1c(=O)oc2cc(S(=O)(=O)NC3CCN(Cc4ccccc4)CC3)ccc21,> 8 µM (inactive),–
Cc1ccc(/C=c2\sc3nc(-c4ccccc4Br)nn3c2=O)o1,> 8 µM (inactive),–
Cc1ccc(O)c(C(=O)c2cc(C#N)c(=O)n(CC3CCCO3)c2)c1 (stereo not given),> 8 µM (inactive),–
CC(OC1=CC(=O)CCC1)C(=O)c1ccccc1 (stereo not given),> 8 µM (inactive),–
Cn1cccc1Cc1nnc(SCC(=O)NCC2CCCO2)n1-c1ccc(F)cc1 (stereo not given),> 8 µM (inactive),–
O=C(Nc1ccccc1)N(O)c1ccc(Cl)cc1,> 8 µM (inactive),–
Cc1cc(C)c(C)c(S(=O)(=O)Nc2ccc(O)cc2)c1C,> 8 µM (inactive),–
Cn1c(=O)n(C)c2cc(NC(=O)C(F)(F)F)ccc21,> 8 µM (inactive),–
O=C(NC1CCCc2ccccc21)c1ccc(CNc2c(N3CCOCC3)c(=O)c2=O)cc1 (stereo not given),> 8 µM (inactive),–
O=C(CCN1CCN(c2ccc(F)cc2)CC1)Nc1ccccc1F,> 8 µM (inactive),–
Cc1ccccc1-n1c(=O)cc(NCc2ccc3c(c2)OCO3)[nH]c1=O,> 8 µM (inactive),–
Cc1ccccc1OCC(O)CN (stereo not given),> 8 µM (inactive),–
CS(=O)(=O)N1CCN(c2ccccc2NC(=O)c2ccc(-c3ccc(Cl)cc3Cl)o2)CC1,> 8 µM (inactive),–
COc1ccc(NC(=O)CCc2nc(-c3ccccc3F)no2)cc1,> 8 µM (inactive),–
Cc1nc(C)n(C(C)CC(=O)O)n1 (stereo not given),> 8 µM (inactive),–
Cc1nnc(SC(=O)N2c3ccccc3Sc3ccccc32)s1,> 8 µM (inactive),–
O=C(C1COc2ccccc2O1)N1CCCC1 (stereo not given),> 8 µM (inactive),–

SMILES,IC50,pIC50
COc1ccc(Cc2nnc3n2N=C(c2cc4ccccc4o2)CS3)cc1OC,> 8 µM (inactive),–
COc1ccc(CCNC(=O)CSc2nnc(CNc3ccc(Cl)cc3)o2)cc1OC,> 8 µM (inactive),–
CC(C)(C)NC(=O)CN(Cc1cccs1)C(=O)c1csnn1,> 8 µM (inactive),–
CN(C)c1ccc(O)c2c1CC1CC3[C@@H](N(C)C)C(=O)C(C(N)=O)=C(O)[C@]3(O)C(=O)C1=C2O (stereo not given in full),–,> 7.00
O=C(CSc1nnc(CNC(=O)c2c(F)cccc2Cl)o1)c1ccccc1,> 8 µM (inactive),–
CCCCNC(=O)CSc1nc2ccc(N3CCOCC3)cc2c(=O)n1CCc1ccccc1,> 8 µM (inactive),–
CN(C)[C@@H]1C(=O)C(C(N)=O)=C(O)[C@@]2(O)C(=O)C3=C(O)c4c(O)cccc4[C@@](C)(O)[C@H]3C[C@@H]12,–,7.10
CCn1cc(C(=O)NCCC2=CCCCC2)c(=O)c2cc(S(=O)(=O)N(C)C)ccc21,> 8 µM (inactive),–
COc1cccc(/C=N/n2c(C)nc3ccccc32)c1OC,> 8 µM (inactive),–
CC1(C)Cc2ccccc2C(N)=C1C#N,> 8 µM (inactive),–
O=C(Nc1ncnc2sc3c(c12)CCCCC3)c1ccco1,> 8 µM (inactive),–
CCn1ncc(C2=NOC(C(=O)NCc3ccccc3)C2)c1C (stereo not given),> 8 µM (inactive),–
O=C(c1ccc(=O)[nH]c1)N(Cc1ccco1)C1(C(=O)NC2CCCC2)CCCCC1,> 8 µM (inactive),–
C=C(C)CSc1nnc(-c2cccc(S(=O)(=O)N(C)C)c2)n1-c1cc(OC)ccc1OC,> 8 µM (inactive),–
CN(C)[C@@H]1C(=O)C(C(N)=O)=C(O)[C@@]2(O)C(=O)C3=C(O)c4c(O)cccc4[C@@](C)(O)[C@H]3[C@H](O)[C@@H]12,–,> 7.00
O=C(Nc1cnn(Cc2ccc(Cl)cc2Cl)c1)c1noc2c1CCCC2,> 8 µM (inactive),–
Nc1cc(-c2ccccc2)ccc1O,> 8 µM (inactive),–
CC(C)CCNC(=O)C(C)N(Cc1ccc(F)cc1)C(=O)c1ccc(CN2CCCCC2)o1 (stereo not given),> 8 µM (inactive),–
COc1ccc(-c2nc(C#N)c(N3CCOCC3)o2)cc1OC,> 8 µM (inactive),–
Cc1cc(N2CCN(C3CCCC3)CC2)n2c(nc3ccccc32)c1C#N,> 8 µM (inactive),–
Cc1nc(NC2=NCN(CC3CCCO3)CN2)nc2ccccc12 (stereo not given),> 8 µM (inactive),–
O=C1Nc2ccccc2OC1CC(=O)N1CCCC1 (stereo not given),> 8 µM (inactive),–
CCOC(=O)C1CCN(c2nc3ccccc3nc2C(C#N)C(=O)OC(C)C)CC1 (stereo not given),> 8 µM (inactive),–

SMILES,IC50,pIC50
CC1(C)CC(=O)C(C=NCCO)=C(O)C1,> 8 µM (inactive),–
CCOC(=O)N1CCN(C(=O)c2ccc3c(=O)n(Cc4ccc(OC)cc4)c(=S)[nH]c3c2)CC1,> 8 µM (inactive),–
O=C(O)CCn1[nH]c(=O)ccc1=O,> 8 µM (inactive),–
O=C(CSc1nnc(-c2ccco2)n1-c1ccccc1)N1CCN(C(=O)c2ccco2)CC1,> 8 µM (inactive),–
OCCNC1=NCCN1,> 8 µM (inactive),–
CCOc1ccc(NS(=O)(=O)c2ccc(OCC(=O)N3CCCC3)cc2)cc1,> 8 µM (inactive),–
CCCCc1nccn1CCn1ccnc1CCCC,> 8 µM (inactive),–
COc1cccc(C2C(C(=O)c3ccc(C)o3)=C(O)C(=O)N2CCCN(C)C)c1 (stereo not given),> 8 µM (inactive),–
Cc1ccccc1NC1=NCCCS1,> 8 µM (inactive),–
O=C(NCc1ccco1)c1ccccc1Nc1ccc(F)cc1,> 8 µM (inactive),–
Cn1c(=O)c2c(nc(NCc3ccc4c(c3)OCO4)n2Cc2ccccc2F)n(C)c1=O,> 8 µM (inactive),–
CC(C)(NC(=O)N1CCCC1)c1cccc(C(C)(C)NC(=O)N2CCCC2)c1,> 8 µM (inactive),–
Cc1cc(NC(=O)c2ccc(Cl)cc2)no1,> 8 µM (inactive),–
Nc1nonc1NC(=O)CSc1nc2ccccc2s1,> 8 µM (inactive),–
COc1ccc(CCNC(=O)C2=COCCO2)cc1,> 8 µM (inactive),–
CCOC(=O)c1sc(NC(=O)c2c(C)nn(Cc3ccccc3)c2C)cc1C,> 8 µM (inactive),–
CSc1ccccc1NC(=O)c1c(Br)cnn1C,> 8 µM (inactive),–
COc1ccc(S(=O)(=O)Cc2ccc(C(=O)NCCc3ccc(S(N)(=O)=O)cc3)o2)cc1,> 8 µM (inactive),–
CN(C)C(=O)N1CCC(C(=O)NC2CCCCCCC2)CC1,> 8 µM (inactive),–
O=c1oc2c3c4c(cc2cc1-c1nc2ccccc2[nH]1)CCCN4CCC3,> 8 µM (inactive),–
Cc1ccc(Nc2nc(N)nc(CN3CCN(Cc4ccc5c(c4)OCO5)CC3)n2)cc1,> 8 µM (inactive),–
O=C(Nc1nccs1)c1ccc(Cl)c(S(=O)(=O)N2CCCCC2)c1,> 8 µM (inactive),–
CN(C)[C@@H]1C(=O)C(C(N)=O)=C(O)[C@@]2(O)C(=O)C3=C(O)c4c(O)ccc(Cl)c4[C@@](C)(O)C3C[C@@H]12 (stereo not given in full),–,> 8.00

SMILES,IC50,pIC50
Cc1ccnc(NC(=O)C2CCCN(S(=O)(=O)c3cnc[nH]3)C2)c1 (stereo not given),> 8 µM (inactive),–
COC(=O)c1oc2ccc(Br)cc2c1NC(C)=O,> 8 µM (inactive),–
COc1ccccc1-n1c(=O)c2c3c(sc2n2c(SC(C)C)nnc12)CCC3,> 8 µM (inactive),–
Cn1c(-c2ccc(F)cc2)cnc1SCC(=O)Nc1ccccc1N1CCOCC1,> 8 µM (inactive),–
COc1cccc(-c2nnc3sc(C4CCCCC4)nn23)c1,> 4 µM (inactive),–
CC(C)(C)OC(=O)N1CC=C2C(C#N)=C(N)C(C#N)(C#N)[C@H](c3cccnc3)[C@H]2C1,> 8 µM (inactive),–
CCOc1cc(C(=O)N2CCN(c3ccccc3)CC2)cc(OCC)c1OCC,> 8 µM (inactive),–
CCn1c(C(=O)N2CCCC(C(=O)NCCCc3ccccc3)C2)cc2sccc21 (stereo not given),> 4 µM (inactive),–
CS(=O)(=O)N(CC(=O)NCCSCc1cccc(Cl)c1)c1ccc2c(c1)OCO2,> 8 µM (inactive),–
COc1ccc(N2CCC(CNS(=O)(=O)c3cccc(C(F)(F)F)c3)C2)cc1 (stereo not given),> 8 µM (inactive),–
CCOC(=O)C1=C(C)NC(SC(C)=O)=NC1c1ccc(OC(C)=O)c(OC)c1 (stereo not given),> 8 µM (inactive),–
COc1ccc(CCNC(=O)c2ccc(N3CCCC3=O)cc2)cc1OC,> 8 µM (inactive),–
COc1ccc(CNc2nc3nc(C)cc(C)n3n2)cc1OC,> 8 µM (inactive),–
CCOc1cc(C(=O)Nc2ncccn2)cc(OCC)c1OCC,> 8 µM (inactive),–
Cc1cc(C)c(OCC(=O)Nc2cccc(O)c2)cc1C,> 8 µM (inactive),–
CCOC(=O)c1sc2ncn(/N=C/N(C)C)c(=O)c2c1C,> 8 µM (inactive),–
C#CC1(O)CC(C)N(C)C(C)C1 (stereo not given),> 8 µM (inactive),–
O=C1NC(=O)C(CC(=O)N(Cc2ccco2)C2(C(=O)NC3CCCC3)CCCCC2)N1 (stereo not given),> 8 µM (inactive),–
COCCCNC(=O)C(Cc1ccccc1)NS(=O)(=O)c1ccc2c(c1)c(=O)n(C)c(=O)n2C (stereo not given),> 8 µM (inactive),–
CN(C)[C@@H]1C(=O)C(C(N)=O)=C(O)[C@@]2(O)C(=O)C3=C(O)c4c(O)ccc(Cl)c4[C@@H](O)[C@H]3C[C@@H]12,–,> 8.00
CCN(CC)c1ccc2cc(-c3nc4ccccc4[nH]3)c(=O)oc2c1,> 8 µM (inactive),–
